This passage reports inhibition results from article PMC6934184, “Selective DNA-PKcs inhibition extends the therapeutic index of localized radiotherapy and chemotherapy” (The Journal of Clinical Investigation, 2019).

The target in this assay is T1, MAP4K1 (HPK1) (Homo sapiens, UniProt Q92918).
T1 construct: purchased Thermo Fisher Scientific (Life Technologies) SelectScreen
Briefly: SelectScreen LanthaScreen. In kind it is binding. As to conditions: read-out: % displacement. The gist of the method: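 Percent values come from Thermo SelectScreen profiling of NU5455, combining activity and binding assays. CSF1R was run in Z'LYTE format at Km app ATP, and CAMK1 in Adapta format with ATP listed at 10.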
In general terms: Time-resolved FRET reads energy transfer from a long-lived donor to a nearby acceptor.

T1 sequence (Q92918 whole entry): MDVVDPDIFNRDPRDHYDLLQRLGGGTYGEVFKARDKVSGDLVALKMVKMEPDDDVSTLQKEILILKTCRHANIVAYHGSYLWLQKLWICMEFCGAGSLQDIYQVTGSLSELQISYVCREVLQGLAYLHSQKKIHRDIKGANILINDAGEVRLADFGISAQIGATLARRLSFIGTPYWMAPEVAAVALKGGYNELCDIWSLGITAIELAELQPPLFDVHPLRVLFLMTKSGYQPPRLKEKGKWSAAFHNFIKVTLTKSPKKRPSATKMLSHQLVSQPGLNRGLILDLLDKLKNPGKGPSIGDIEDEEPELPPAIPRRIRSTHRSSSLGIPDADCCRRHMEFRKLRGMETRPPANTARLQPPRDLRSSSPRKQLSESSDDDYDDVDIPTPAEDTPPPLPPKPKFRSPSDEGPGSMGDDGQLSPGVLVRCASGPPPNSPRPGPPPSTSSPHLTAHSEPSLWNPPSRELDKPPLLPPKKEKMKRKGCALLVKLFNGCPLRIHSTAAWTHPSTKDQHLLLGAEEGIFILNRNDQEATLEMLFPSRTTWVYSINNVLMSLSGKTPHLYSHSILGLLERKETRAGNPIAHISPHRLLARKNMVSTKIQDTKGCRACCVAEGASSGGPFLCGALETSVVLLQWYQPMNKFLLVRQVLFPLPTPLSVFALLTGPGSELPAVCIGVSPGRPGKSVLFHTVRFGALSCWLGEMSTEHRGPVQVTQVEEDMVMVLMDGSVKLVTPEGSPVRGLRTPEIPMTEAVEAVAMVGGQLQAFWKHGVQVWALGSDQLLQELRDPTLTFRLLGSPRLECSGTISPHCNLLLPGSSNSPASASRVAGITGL

With `CN(C(=O)CN1CCOCC1)c1ccc2sc3c(-c4cccc5c(=O)cc(N6CC7CCC(C6)O7)oc45)cccc3c2c1` [NU5455], the inhibition at 1 µM came out at 1.6%.
